{"source": "patent US10392443B2", "about": "“Diagnostic and therapeutic tool for cancer” (Agency for Science, Technology and Research, priority 2014, dated 2019)", "test_system": "MHCC-LM3 cells", "assay": "Fibronectin attachment with recombinant Agrin coat, Western blot", "format": "cell-based, human", "conditions": "Agrin depleted MHCC-LM3 cells; fibronectin supplemented with 20 μg/ml recombinant Agrin as ECM coat; 2 h post plating", "experimental": "72 h post transfections, cell lysates were analysed for indicated proteins; (b and c) show Western blot analysis of control or Agrin depleted MHCC-LM3 cells, which were serum starved overnight, trypsinized and plated on fibronectin or fibronectin supplemented with 20 μg/ml recombinant Agrin coated surface. […] Representative images under 20× magnification are shown and results quantitated using Image J software (P value=0.005). Thus, FIG. 6 validates the role of Agrin as an ECM sensor regulating focal adhesion, cell spreading and invasion to affect EMT program in HCC cell lines.\nBriefly, culture plates were coated with 10 μg/ml fibronectin for 1 h at 37° C. Either control or Agrin knockdown cells (2*10^3 cells/ml) were trypsinized and plated on coated dishes. Adhered cells were analysed either by live cell imaging for morphological changes at indicated time-points or lysates were collected and subjected to Western blot analysis.", "data": [{"substance": "recombinant Agrin: Pure recombinant Agrin protein obtained from MyBiosource", "values": [{"measurement": "activation of focal adhesion kinase and Arp2/3", "value": "substantially increased"}]}]}
